In general, pIC50 refers to the IC50 on a negative log10 scale, so that one unit is a factor of ten.

From patent US11708367B2, “Compounds for the treatment of kinase-dependent disorders” (Exelixis, Inc., priority 2018, dated 2023) come the findings set out here.

Experiment [1] addresses Human Axl (Homo sapiens (Human), UniProt P30530, Q764R). Description: Human AXL kinase assay (33P radiometric, KinaseProfiler). Format: biochemical. The conditions noted are these: 10 μM ATP. The method, then: (§1) Kinase activity and compound inhibition were investigated using the ^33P-Phosphoryl transfer radiometric kinase assay, performed using the KinaseProfiler™ service of Eurofins Pharma Discovery Services UK Limited. Dose-response experiments were performed using nine compound concentrations in a 96-well microtiter plate. For each assay, all compounds were prepared to a 50× final assay concentration (50 μM) in 100% DMSO, then diluted in a half-log series, with the final top concentration at 1 μM. This working stock of the compound was added to the assay well as the first component in the reaction, followed by the remaining components as detailed in the following assay protocols below. The positive control wells (100% kinase activity) contain all components of the reaction including 2% DMSO (control for solvent effects), except the compound of interest. Blank wells contain all components of the reaction, with the reference inhibitor, staurosporine. This reference compound was used to abolish kinase activity and generated the 0% kinase activity base-line. IC50 values were calculated by nonlinear regression analysis using the sigmoidal dose-response (variable slope) curve fit on XLFit version 5.3 (ID Business Solutions).
Human Axl (residues H473-A894 with Q764R, 161 nM) was incubated with 8 mM MOPS pH 7.0, 0.2 mM EDTA, 250 μM KKSRGDYMTMQIG (SEQ ID NO. 43), 10 mM magnesium acetate and 10 μM [γ-33P-ATP]. The reaction was initiated by the addition of the Mg/ATP mix. After incubation for 40 minutes at room temperature, the reaction was stopped by the addition of phosphoric acid to a concentration of 0.5%. A reaction aliquot of 10 μL was then spotted onto a P30 filtermat and washed four times for 4 minutes in 0.425% phosphoric acid and once in methanol prior to drying and scintillation counting. Incorporated ^33P was measured using the Wallac Microbeta scintillation counter (Perkin Elmer).

Experiment [2] addresses Mer (Homo sapiens (Human), UniProt Q12866). The experiment in a line: Human Mer kinase assay (33P radiometric, KinaseProfiler). It is filed as biochemical. The conditions noted are these: 10 μM ATP. The method, then: as §1
Human Mer (residues R557-E882 with H628Q and R794A, 0.7 nM) was incubated with 8 mM MOPS pH 7.0, 0.2 mM EDTA, 30 mM NaCl, 250 μM GGMEDIYFEFMGGKKK (SEQ ID NO. 44), 10 mM magnesium acetate, and 10 μM [γ-33P-ATP]. The reaction was initiated by the addition of the Mg/ATP mix. After incubation for 40 minutes at room temperature, the reaction was stopped by the addition of phosphoric acid to a concentration of 0.5%. A reaction aliquot of 10 μL was then spotted onto a P30 filtermat and washed four times for 4 minutes in 0.425% phosphoric acid and once in methanol prior to drying and scintillation counting. Incorporated 33P was measured using the Wallac Microbeta scintillation counter (Perkin Elmer).

Experiment [3] concerns the target T1, Met (Homo sapiens (Human), UniProt P08581). The experiment in a line: Human Met kinase assay (33P radiometric, KinaseProfiler). Format: biochemical. The conditions noted are these: 10 μM ATP, read-out: c-Met IC50. As for the experimental part:
as §1
Human Met (residues R974-S1390 with A1209G and V1290L, 3.4 nM) was incubated with 8 mM MOPS pH 7.0, 0.2 mM EDTA, 250 µM KKKGQEEEYVFIE (SEQ ID NO. 45), 1 mM sodium orthovanadate, 5 mM […], 10 mM magnesium acetate, and 10 μM [γ-33P-ATP]. The reaction was initiated by the addition of the Mg/ATP mix. After incubation for 40 minutes at room temperature, the reaction was stopped by the addition of phosphoric acid to a concentration of 0.5%. A reaction aliquot of 10 μL was then spotted onto a P30 filtermat and washed four times for 4 minutes in 0.425% phosphoric acid and once in methanol prior to drying and scintillation counting. Incorporated 33P was measured using the Wallac Microbeta scintillation counter (Perkin Elmer).

The target of experiment [4] is T1, Met. Description: Met autophosphorylation ELISA in PC-3 cells. The conditions noted are these: cellular, HGF-stimulated, phospho-Met ELISA, read-out: c-Met IC50. Format: cell-based. As for the experimental part: PC-3 prostate cancer cells (ATCC #CRL-1435) were seeded at 4×10^4 cells/well onto 24-well plates (Greiner #662165), in DMEM (Thermo Fisher #11995-040) containing 10% FBS (Thermo Fisher #26140-079), 1% MEM NEAA (Thermo Fisher #11140-050), 1% GlutaMax (Thermo Fisher #35050-061), and 1% Penicillin Streptomycin (Thermo Fisher #15140-122). PC-3 cells were incubated at 37° C., 5% CO2 for 24 h and then starved for 3 h in serum-free medium. Test compounds were serially diluted to produce an 8-point dose curve in fresh serum-free medium to a final concentration of 0.3% DMSO (vehicle) and added to the cells and incubated for 1 h. Cells were then stimulated with 100 ng/mL recombinant human HGF (R&D Systems #294-HG-250) for 10 min, washed with cold PBS, and immediately lysed with 130 μL of cold IX lysis buffer [20 mM Tris, 137 mM sodium chloride, 2 mM EDTA, 10% glycerol, 1% NP-40 alternative, 1 mM activated sodium orthovanadate, 1 mM PefaBloc SC (Sigma-Aldrich #11429868001), protease/phosphatase inhibitor tablet (Thermo Fisher #A32959)]. Lysates were clarified by centrifugation and 100 μL/well added into the PathScan phospho-Met (panTyr) Sandwich ELISA (Cell Signaling Technology #7333). Assay was performed according to manufacturer's instructions. Positive control wells (100% activity) contained HGF-stimulated, DMSO-treated cell lysates. Negative control wells (0% activity) contained HGF-stimulated, reference inhibitor-treated cell lysates. IC50 values were calculated by nonlinear regression analysis using a 4-parameter logistic curve fit in ActivityBase XL (IDBS).
For orientation: In an ELISA, binding on a coated surface is turned into a signal by an enzyme label.
Target sequence in this assay (P08581 25-1390): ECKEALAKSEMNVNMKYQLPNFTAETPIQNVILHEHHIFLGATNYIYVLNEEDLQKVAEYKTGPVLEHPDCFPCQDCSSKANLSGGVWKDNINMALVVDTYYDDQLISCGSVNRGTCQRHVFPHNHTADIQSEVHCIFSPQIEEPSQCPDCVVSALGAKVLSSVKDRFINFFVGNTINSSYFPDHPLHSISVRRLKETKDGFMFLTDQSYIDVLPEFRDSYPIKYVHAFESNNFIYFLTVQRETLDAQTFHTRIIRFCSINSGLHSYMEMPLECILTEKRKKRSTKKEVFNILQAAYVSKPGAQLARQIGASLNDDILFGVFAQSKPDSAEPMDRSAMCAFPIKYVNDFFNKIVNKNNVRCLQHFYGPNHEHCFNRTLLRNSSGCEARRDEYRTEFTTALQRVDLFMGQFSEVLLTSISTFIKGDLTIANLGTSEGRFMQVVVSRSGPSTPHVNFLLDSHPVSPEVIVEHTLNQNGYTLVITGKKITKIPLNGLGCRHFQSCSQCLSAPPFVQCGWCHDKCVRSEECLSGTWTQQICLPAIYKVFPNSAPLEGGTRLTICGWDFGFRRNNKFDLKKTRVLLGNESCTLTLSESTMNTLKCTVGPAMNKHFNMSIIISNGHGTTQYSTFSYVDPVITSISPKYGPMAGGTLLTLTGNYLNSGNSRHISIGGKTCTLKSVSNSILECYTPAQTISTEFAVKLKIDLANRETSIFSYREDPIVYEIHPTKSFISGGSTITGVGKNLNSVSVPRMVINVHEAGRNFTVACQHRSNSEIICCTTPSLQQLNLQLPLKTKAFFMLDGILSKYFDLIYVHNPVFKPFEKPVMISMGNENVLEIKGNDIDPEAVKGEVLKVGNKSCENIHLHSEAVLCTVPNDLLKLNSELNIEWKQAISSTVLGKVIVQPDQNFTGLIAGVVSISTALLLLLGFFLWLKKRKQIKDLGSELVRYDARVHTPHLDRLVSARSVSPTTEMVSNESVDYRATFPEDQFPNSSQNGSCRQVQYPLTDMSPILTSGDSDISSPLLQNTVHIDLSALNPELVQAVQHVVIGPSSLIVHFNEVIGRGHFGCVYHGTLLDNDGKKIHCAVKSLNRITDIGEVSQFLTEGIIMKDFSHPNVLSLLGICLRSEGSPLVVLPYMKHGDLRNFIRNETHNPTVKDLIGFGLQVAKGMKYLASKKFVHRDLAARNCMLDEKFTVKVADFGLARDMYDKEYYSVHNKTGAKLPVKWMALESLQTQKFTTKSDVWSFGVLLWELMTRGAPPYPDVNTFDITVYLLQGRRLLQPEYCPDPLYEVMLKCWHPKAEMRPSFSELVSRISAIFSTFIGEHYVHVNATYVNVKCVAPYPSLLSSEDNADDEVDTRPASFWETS

Experiment [5] deals with AXL (Homo sapiens (Human), UniProt P30530). The experiment in a line: AXL autophosphorylation ELISA in A-172 cells. Format: cell-based. The conditions noted are these: cellular, Gas6-stimulated, phospho-AXL ELISA. As for the experimental part: A-172 glioblastoma cells (ATCC #CRL-1620) were seeded at 2.5×10^5 cells/well onto 24-well plates (Greiner #662165), in DMEM (Thermo Fisher #11995-040) containing 10% FBS (Thermo Fisher #26140-079), 1% MEM NEAA (Thermo Fisher #11140-050), 1% GlutaMax (Thermo Fisher #35050-061), and 1% Penicillin Streptomycin (Thermo Fisher #15140-122). A-172 cells were incubated at 37° C., 5% CO2 for 24 h and then starved for 24 h in serum-free medium. Test compounds were serially diluted to produce an 8-point dose curve in fresh serum-free medium to a final concentration of 0.3% DMSO (vehicle) and added to the cells and incubated for 1 h. Cells were then stimulated with 1 μg/mL recombinant human Gas6 (R&D Systems #885-GSB-500) for 15 min, washed with cold PBS, and immediately lysed with 150 μL of cold IX lysis buffer [20 mM Tris, 137 mM sodium chloride, 2 mM EDTA, 10% glycerol, 1% NP-40 alternative, 1 mM activated sodium orthovanadate, 1 mM PefaBloc SC (Sigma-Aldrich #11429868001), protease/phosphatase inhibitor tablet (Thermo Fisher #A32959)]. Lysates were collected and 100 μL/well added into the human phospho-AXL Duo Set IC ELISA (R&D Systems #DYC2228-2). Assay was performed according to manufacturer's instructions and sample phospho-AXL concentrations were extrapolated using human phospho-AXL control (R&D Systems #841645) as a standard. Positive control wells (100% activity) contained Gas6-stimulated, DMSO-treated cell lysates. Negative control wells (0% activity) contained Gas6-stimulated, reference inhibitor-treated cell lysates. IC50 values were calculated by nonlinear regression analysis using a 4-parameter logistic curve fit in ActivityBase XL (IDBS).
Sequence of AXL (P30530 26-894): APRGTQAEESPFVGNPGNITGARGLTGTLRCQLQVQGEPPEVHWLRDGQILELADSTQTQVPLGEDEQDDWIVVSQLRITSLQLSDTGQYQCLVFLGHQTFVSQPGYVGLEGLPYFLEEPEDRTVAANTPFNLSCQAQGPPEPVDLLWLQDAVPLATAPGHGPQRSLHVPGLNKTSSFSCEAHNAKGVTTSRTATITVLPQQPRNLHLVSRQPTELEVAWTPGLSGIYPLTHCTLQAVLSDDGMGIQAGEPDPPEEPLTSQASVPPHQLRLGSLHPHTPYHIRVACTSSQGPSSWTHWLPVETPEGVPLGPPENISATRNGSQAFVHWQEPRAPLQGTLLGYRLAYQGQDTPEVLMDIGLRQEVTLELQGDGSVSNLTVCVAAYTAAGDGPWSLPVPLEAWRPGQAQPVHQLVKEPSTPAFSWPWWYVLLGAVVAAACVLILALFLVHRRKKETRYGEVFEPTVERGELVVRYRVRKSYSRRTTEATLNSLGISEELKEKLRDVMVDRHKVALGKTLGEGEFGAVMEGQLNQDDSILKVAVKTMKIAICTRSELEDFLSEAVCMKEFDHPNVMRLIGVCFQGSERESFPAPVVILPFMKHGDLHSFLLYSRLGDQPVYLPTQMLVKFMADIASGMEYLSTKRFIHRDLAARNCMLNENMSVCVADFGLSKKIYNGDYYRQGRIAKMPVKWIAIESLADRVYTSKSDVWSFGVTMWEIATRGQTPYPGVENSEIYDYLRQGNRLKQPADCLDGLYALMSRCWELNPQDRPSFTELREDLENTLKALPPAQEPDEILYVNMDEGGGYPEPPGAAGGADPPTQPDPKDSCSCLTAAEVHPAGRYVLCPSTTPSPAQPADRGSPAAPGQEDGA

The target in experiment [6] is KDR (Homo sapiens (Human), UniProt P35968). Description: KDR autophosphorylation ELISA in HUVEC cells. The conditions noted are these: cellular, VEGF165-stimulated, phospho-KDR ELISA. Format: cell-based. As for the experimental part: Human umbilical vein endothelial cells or HUVEC (Lonza #C2519A) were seeded at 2×10^4 cells/well onto 96-well plates (Corning #3904), in EGM-2 growth medium (Lonza #CC-3162) containing 1% Penicillin Streptomycin (Thermo Fisher #15140-122). HUVEC cells were incubated at 37° C., 5% CO2 for 24 h and then starved for 24 h in serum-free EBM-2 basal medium (Lonza #CC-3156) containing 1% Penicillin Streptomycin. Test compounds were serially diluted to produce an 8-point dose curve in fresh serum-free medium to a final concentration of 0.3% DMSO (vehicle) and added to the cells and incubated for 1 h. Cells were then stimulated with 100 ng/mL recombinant human VEGF165 (R&D Systems #293-VE-500) for 5 min, washed with cold PBS, and immediately lysed with 130 μL of cold 1× lysis buffer [20 mM Tris, 137 mM sodium chloride, 2 mM EDTA, 10% glycerol, 1% NP-40 alternative, 1 mM activated sodium orthovanadate, 1 mM PefaBloc SC (Sigma-Aldrich #11429868001), protease/phosphatase inhibitor tablet (Thermo Fisher #A32959)]. Lysates were collected and 100 μL/well added into the human phospho-KDR Duo Set IC ELISA (R&D Systems #DYC 1766-2). Assay was performed according to manufacturer's instructions and sample phospho-KDR concentrations were extrapolated using human phospho-KDR control (R&D Systems #841421) as a standard. Positive control wells (100% activity) contained VEGF165-stimulated, DMSO-treated cell lysates. Negative control wells (0% activity) contained non-stimulated cell lysates. IC50 values were calculated by nonlinear regression analysis using a 4-parameter logistic curve fit in ActivityBase XE (IDBS).
Sequence of KDR (P35968 20-1356): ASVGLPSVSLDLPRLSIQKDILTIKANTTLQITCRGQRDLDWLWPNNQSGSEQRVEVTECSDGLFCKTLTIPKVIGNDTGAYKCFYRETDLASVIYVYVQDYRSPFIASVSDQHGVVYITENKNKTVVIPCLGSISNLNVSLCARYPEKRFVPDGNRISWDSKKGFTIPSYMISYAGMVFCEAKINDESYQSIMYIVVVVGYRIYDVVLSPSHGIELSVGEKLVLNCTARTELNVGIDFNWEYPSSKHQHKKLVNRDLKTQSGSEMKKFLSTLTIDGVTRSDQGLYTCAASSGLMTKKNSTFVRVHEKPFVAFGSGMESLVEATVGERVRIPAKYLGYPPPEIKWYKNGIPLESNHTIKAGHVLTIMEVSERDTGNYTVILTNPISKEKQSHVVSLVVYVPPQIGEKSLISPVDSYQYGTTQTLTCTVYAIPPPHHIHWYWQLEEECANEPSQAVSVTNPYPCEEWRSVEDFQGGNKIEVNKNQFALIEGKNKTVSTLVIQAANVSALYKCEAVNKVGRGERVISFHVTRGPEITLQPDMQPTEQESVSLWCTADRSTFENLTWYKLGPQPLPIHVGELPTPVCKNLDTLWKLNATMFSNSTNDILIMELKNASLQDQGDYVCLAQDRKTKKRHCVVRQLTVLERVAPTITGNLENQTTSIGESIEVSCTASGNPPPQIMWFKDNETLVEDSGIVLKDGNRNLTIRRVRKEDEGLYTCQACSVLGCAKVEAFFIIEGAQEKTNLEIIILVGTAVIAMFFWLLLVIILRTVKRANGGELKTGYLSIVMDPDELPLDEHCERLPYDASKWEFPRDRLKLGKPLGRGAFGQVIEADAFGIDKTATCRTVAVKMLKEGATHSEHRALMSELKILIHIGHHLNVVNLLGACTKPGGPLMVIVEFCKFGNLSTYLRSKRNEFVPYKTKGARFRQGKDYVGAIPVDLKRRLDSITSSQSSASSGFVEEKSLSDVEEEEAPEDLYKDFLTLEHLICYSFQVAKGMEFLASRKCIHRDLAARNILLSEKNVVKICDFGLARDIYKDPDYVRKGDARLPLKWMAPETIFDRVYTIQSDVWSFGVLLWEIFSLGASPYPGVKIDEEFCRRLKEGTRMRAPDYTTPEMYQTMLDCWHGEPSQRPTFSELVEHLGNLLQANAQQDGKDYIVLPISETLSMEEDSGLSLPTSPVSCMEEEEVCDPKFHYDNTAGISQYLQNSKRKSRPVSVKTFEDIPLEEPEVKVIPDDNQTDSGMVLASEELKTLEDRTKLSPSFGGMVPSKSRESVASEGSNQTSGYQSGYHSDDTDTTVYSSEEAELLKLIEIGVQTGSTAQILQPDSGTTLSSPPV

pIC50: −log10 of the molar value.

Sequence of Mer (Q12866 557-882): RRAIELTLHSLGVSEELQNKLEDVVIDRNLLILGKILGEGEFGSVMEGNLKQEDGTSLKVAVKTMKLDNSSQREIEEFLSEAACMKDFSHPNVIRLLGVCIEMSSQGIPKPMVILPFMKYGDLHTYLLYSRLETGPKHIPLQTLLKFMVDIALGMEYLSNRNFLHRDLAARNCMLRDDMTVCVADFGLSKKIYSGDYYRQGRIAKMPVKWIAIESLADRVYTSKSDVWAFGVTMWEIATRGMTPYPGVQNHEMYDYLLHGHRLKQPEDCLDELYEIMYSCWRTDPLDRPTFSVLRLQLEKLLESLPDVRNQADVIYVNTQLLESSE
Sequence of Human Axl (P30530 473-894 Q764R): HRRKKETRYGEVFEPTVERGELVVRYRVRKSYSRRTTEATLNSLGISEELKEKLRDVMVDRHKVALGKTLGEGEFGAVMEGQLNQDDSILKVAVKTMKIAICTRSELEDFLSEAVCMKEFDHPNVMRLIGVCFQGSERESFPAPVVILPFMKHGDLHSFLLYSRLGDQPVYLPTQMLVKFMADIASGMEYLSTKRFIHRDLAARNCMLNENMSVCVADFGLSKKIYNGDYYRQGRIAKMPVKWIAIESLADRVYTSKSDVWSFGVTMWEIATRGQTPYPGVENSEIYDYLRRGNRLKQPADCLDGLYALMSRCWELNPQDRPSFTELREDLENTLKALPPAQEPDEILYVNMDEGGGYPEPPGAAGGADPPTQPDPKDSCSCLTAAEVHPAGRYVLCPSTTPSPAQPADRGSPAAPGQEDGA

For `O=C(Nc1ccc(F)cc1)C1(C(=O)Nc2ccc(Oc3ncnc4cccnc34)cc2)CC1` [Compound 7, 1-N′-(4-fluorophenyl)-1-N-(4-pyrido[3,2-d]pyrimidin-4-yloxyphenyl)cyclopropane-1,1-dicarboxamide], the figures for the pIC50 in experiment [1], in experiment [2] and in experiment [3] were under 6.00, under 6.00 and 6.00 to 7.00, respectively.

Consider `COc1cc2nccc(Oc3ccc(NC(=O)C4(C(=O)Nc5ccc(F)cc5)CC4)cc3F)c2nc1C(N)=O` [Compound 168, 1-N′-[4-[(6-carbamoyl-7-methoxy-1,5-naphthyridin-4-yl)oxy]-3-fluoro-phenyl]-1-N-(4-fluorophenyl)cyclopropane-1,1-dicarboxamide], for which the pIC50 in experiment [4] is 6.52 to 7.00; in experiment [5] it was under 6.52; in experiment [6] it was under 6.52.

In the case of `COc1cc2nccc(Oc3ccc(NC(=O)C4(C(=O)Nc5ccc(F)cc5)CC4)cc3Cl)c2nc1C(N)=O` [Compound 169, 1-N′-[4-[(6-carbamoyl-7-methoxy-1,5-naphthyridin-4-yl)oxy]-3-chlorophenyl]-1-N-(4-fluorophenyl)cyclo-propane-1,1-dicarboxamide], the pIC50 in experiment [4], in experiment [5] and in experiment [6] was 7.00 to 8.00 in each case.

For `CNC(=O)c1nc2c(Oc3ccc(NC(=O)C4(C(=O)Nc5ccc(F)cc5)CC4)cc3)ccnc2cc1OC` [Compound 172, 1-N′-(4-fluorophenyl)-1-N-[4-[[7-methoxy-6-(methyl-carbamoyl)-1,5-naphthyridin-4-yl]oxy]phenyl]cyclo-propane-1,1-dicarboxamide], the results for the pIC50 in experiment [4], in experiment [5] and in experiment [6] were under 6.52, 6.52 to 7.00 and under 6.52, respectively.

For `CNC(=O)c1nc2c(Oc3ccc(NC(=O)C4(C(=O)Nc5ccc(F)cc5)CC4)cc3F)ccnc2cc1OC` [Compound 173, 1-N′-[3-fluoro-4-[[7-methoxy-6-(methylcarbamoyl)-1,5-naphthyridin-4-- yl]oxy]phenyl]-1-N-(4-fluoro-phenyl)cyclopropane-1,1-dicarboxamide], the pIC50 in experiment [4], in experiment [5] and in experiment [6] was 6.52 to 7.00 each time.

For the compound `COc1cc2nccc(Oc3ccc(NC(=O)C4(C(=O)Nc5ccc(F)cc5)CC4)cc3)c2nc1C(=O)N(C)C` [Compound 174, 1-N-[4-[[6-(dimethyl-carbamoyl)-7-methoxy-1,5-naphthyridin-4-yl]oxy]phenyl]-1-N′-(4-fluorophenyl)cyclopropane-1,1-dicarboxamide], the pIC50 was 6.52 to 7.00 in experiment [4], under 6.52 in experiment [5] and under 6.52 in experiment [6].

On to `COc1cnc2c(Oc3cc(F)c(NC(=O)C4(C(=O)Nc5ccc(F)cc5)CC4)cc3F)ccnc2c1` [Compound 176, 1-N′-[2,5-difluoro-4-[(7-methoxy-1,5-naphthyridin-4-yl)oxy]phenyl]-1-N-(4-fluorophenyl)cyclopropane-1,1-dicarboxamide], for which the pIC50 in experiment [4] is 7.00 to 8.00; in experiment [5], at least 8.00; in experiment [6], 6.52 to 7.00.

As for `COc1cc2nccc(Oc3ccc(NC(=O)C4(C(=O)Nc5ccc(F)cc5)CC4)cc3)c2nc1-c1cn[nH]c1` [Compound 183, 1-N′-(4-fluorophenyl)-1-N-[4-[[7-methoxy-6-(1H-pyrazol-4-yl)-1,5-naphthyridin-4-yl]oxy]phenyl]cyclopropane-1,1-dicarboxamide], the pIC50 in experiment [4], in experiment [5] and in experiment [6] was under 6.52 throughout.

Regarding `COc1cc2nccc(Oc3ccc(NC(=O)C4(C(=O)Nc5ccc(F)cc5)CC4)cc3)c2nc1-c1ccnn1C` [Compound 184, 1-N′-(4-fluorophenyl)-1-N-[4-[[7-methoxy-6-(2-methyl-pyrazol-3-yl)-1,5-naphthyridin-4-yl]oxy]phenyl]cyclo-propane-1,1-dicarboxamide], the pIC50 in experiment [4], in experiment [5] and in experiment [6] was under 6.52 throughout.
